Results published in ChEMBL document CHEMBL1154579, “Novel cytotoxic diterpenes from Casearia arborea” (J Nat Prod, 2000).
pIC50: −log10 of the molar value.

Tests used:
LOX IMVI = test: Cytotoxicity against human LOX IMVI cells after 2 days; format: functional, cell-based; details: 48 h
SF-539 = test: Cytotoxicity against human SF539 cells after 2 days; format: functional, cell-based; details: SF-539, 48 h

SMILES | pIC50 (LOX IMVI) | pIC50 (SF-539)
C=C/C(C)=C/C[C@]1(C)[C@H](C)CC[C@@]23C(=C[C@H](OC(=O)c4ccc(O)cc4)C[C@@H]12)[C@@H](OC(C)=O)O[C@H]3OC(C)=O [CASEARBORIN A] | 6.54 | 6.54
C=C/C(C)=C/C[C@]1(C)[C@H](C)CC[C@@]23C(=C[C@H](OC(=O)c4ccc(O)c(OC)c4)C[C@@H]12)[C@@H](OC(C)=O)O[C@H]3OC(C)=O [CASEARBORIN B] | 6.54 | 6.54
C=C/C(C)=C/C[C@]1(C)[C@H](C)C[C@H](OC(=O)c2ccc(O)cc2)[C@@]23C(=C[C@H](O)C[C@@H]12)[C@@H](OC(C)=O)O[C@H]3OC(C)=O [CASEARBORIN C] | 6.54 | 6.54
C=C/C(C)=C/C[C@]1(C)[C@H](C)C[C@H](O)[C@@]23C(=C[C@H](OC(=O)c4ccc(O)cc4)C[C@@H]12)[C@@H](OC(C)=O)O[C@H]3OC(C)=O [CASEARBORIN D] | 6.54 | 6.54
C=C/C(C)=C/C[C@]1(C)[C@H](C)C[C@H](OC(=O)c2ccc(O)cc2)[C@@]23C(=C[C@H](OC(C)=O)C[C@@H]12)[C@@H](OC(C)=O)O[C@H]3OC(C)=O [CASEARBORIN E] | 6.54 | 6.54
